Measurements as given in patent US20220117964A1, “COMBINATION OF FAK INHIBITOR AND BTK INHIBITOR FOR TREATING A DISEASE” (ASCENTAGE PHARMA (SUZHU) CO., LTD., priority 2019, published 2022).
Several values for one entry are separate records, joined by “and”; a condition that tells them apart may be missing. Identical values can stand only once.

Tests used:
[1] = test system: human KYSE-150 mouse xenograft tumor model; assay: Human KYSE-150 mouse xenograft tumor model, antitumor effect; type: in vivo, BALB/c Nude mice; conditions: for RTV on day 12 after administration (mean ± standard error): day 12 (last dose); for RTV on day 12 after administration (mean ± standard error) / T/C on day 12 after administration (%) / RTV on day 18 after administration (mean ± standard error) / T/C on day 18 after administration (%): Compound 5 100 mg/kg p.o., Ibrutinib 25 mg/kg i.p.; for RTV on day 12 after administration (mean ± standard error) / RTV on day 18 after administration (mean ± standard error): qd × 5d, withdrawal 2 days/week × 2 weeks; for Tumor state on day 12 after administration: CR: day 12, animals with complete regression of tumor / group; for Tumor state on day 12 after administration: PR: day 12, animals with partial regression of tumor / group; for Tumor state on day 12 after administration: SD: day 12, animals with stable disease / group; for RTV on day 18 after administration (mean ± standard error): day 18 (after drug withdrawal); for Tumor state on day 18 after administration: CR: day 18, animals with complete regression of tumor / group; for Tumor state on day 18 after administration: PR: day 18, animals with partial regression of tumor / group; for Tumor state on day 18 after administration: SD: day 18, animals with stable disease / group
Procedure: The animals used were BALB/c Nude mice, 4-6 weeks old, female. Animal body weight was 14-16±20% g. The experimental animals were provided by Beijing Weitonglihua Experimental Animal Technology Co., Ltd. (Vital River Laboratories, VRL, license number: SOCK (J) 2016-0011). Animal certificate number: 11400700325794.
Compound 5 was intragastrically administered at a dose of 100 mg/kg and a volume of 200 μl. The preparation for the administration was prepared every 3 days and stored at 4° C. when it has not been in use. The formulation and use of the preparation were carried out under sterile conditions. […] The preparation for the administration was prepared every 3 days and stored at 4° C. The formulation and use of the preparation were carried out under sterile conditions.
Forty immunodeficiency mice were subcutaneously injected with 5×10^6 KYSE-150 cells suspended in 100 μl PBS in the right armpit to establish a xenograft tumor model. […] When the tumor reached an appropriate size (50 to 100 mm^3), the animals were randomly assigned according to the tumor volume, in which the difference in tumor volume among groups should be less than 10% of the mean value, and at last 7 mice were assigned to each group, and the administration was star ted on the day of group assignment (i.e., d1).
A subcutaneous immunodeficient-mice xenograft tumor model of human tumor was established by cell inoculation method: tumor cells in logarithmic growth phase were collected, counted and resuspended in 1×PBS, and the concentration of cell suspension was adjusted to 5×10^7/mL. 1 mL syringe ([…]) was used to inoculate the tumor cells subcutaneously on the right back of immunodeficient mice, 5×10^6/0.1 mL/mouse. All animal experiments were performed strictly in accordance with the guidelines for Institutional Animal Care and Use Committee (IACUC) of Sun Yat-sen University and Suzhou Yasheng Pharmaceutical Co., Ltd. The calculation of related parameters referred to China NMPA “Technical Guidelines for Nonclinical Research of Cytotoxic Antitumor Drugs”.
Animal body weight and tumor size were measured twice per week during the experiment. The growth of tumor was periodically observed, and when the tumor grew to an average volume of 50 to 100 mm^3, the mice were randomly divided into groups for administration according to tumor size and body weight. The status and deaths of the animals were observed every day. The routine monitoring included the effects of tumor growth and drug administration on the normal behaviors of animals, specially included the activity of experimental animals, food and water consumption, weight gain or loss, eyes, hair, and other abnormal conditions. The deaths and clinical symptoms observed during the experiment were recorded in the raw data. The entire operation for administration, measurement of mouse weight and tumor volume was performed in a clean bench. According to the requirements of the experimental protocol, when the long diameter of tumor was greater than 20 mm, the experimental end point was reached and the mice were euthanized. Tumor tissues were collected, weighed and photographed for recording.
Tumor volume (TV) was calculated as: TV=a×b^2/2, wherein a and b represented the measured length and width of tumor, respectively. The relative tumor volume (RTV) was calculated as: RTV=Vt/V1, wherein V1 represented the tumor volume at the time of group assignment and administration, and Vt represented the tumor volume on a certain day after administration.

[2] = test system: YES-2 cells; assay: Cell migration (Transwell) assay; type: cell-based; conditions: 0.5 μM Compound 5, 0.25 μM Ibrutinib or both
Procedure: The culture medium was sucked into a chamber of Transwell (PC membrane, pore size 8.0 μm, Corning, N.Y., USA), and then the chamber was placed in a 24-well plate containing 750 μl of 50% FBS medium. After incubation for 24 to 30 hours, the chamber was taken out, the medium in the chamber was sucked out, and the redundant cells in the chamber were wiped off with a cotton swab. The chamber was placed in paraformaldehyde to perform fixation for 15 minutes, and staining was performed with 0.5% crystal violet at room temperature for 15 minutes. Cell migration activity was described as a relative number of the cells that exited the chamber.
(1) The experimental method was as described in the items (1), (2), (5) of Example 2. […] The changes in signaling pathway of related proteins were determined by Western blotting assay.

[3] = test system: TE-1; assay: CCK-8 cell viability assay; type: cell-based; conditions: Homo sapiens; TE-1 cells, CCK-8, 72 hours; read-out: IC50, proliferation inhibition
Procedure: (§1) Cell viability was measured using Cell Counting Kit-8 (Dojindo, Japan) according to the manufacturer's instructions. In short, cells were inoculated in a 96-well plate at 3000 to 4000 cells/well in the presence of a single drug or a combination of drugs for 72 hours. After 72 hours, CCK-8 reagent (10 μL/well) was added and incubated at 37° C. for 1-2 hours, and absorbance readings at 450 nm were obtained. The IC50 values were calculated by using GraphPad Prism version 6.0.0 (GraphPad Software, San Diego, Calif. USA) for Windows. […] The expression difference of FAK gene between normal esophageal tissue and esophageal cancer tissue was determined by analyzing the TCGA database source information in the GEPIA database (http://gepia.cancer-pku.cn/), and the correlation between the FAK gene and the EGFR gene in esophageal cancer was determined by analyzing the TCGA database source information using the Pearson test. The basic protein expression levels for the following proteins in 6 esophageal cancer cell lines (TE-10, TE-1, YES-2, KYSE-520, KYSE-510, KYSE-150) were detected by Western blot method: […]

[4] = test system: KYSE-510; assay: CCK-8 cell viability assay; type: cell-based; conditions: Homo sapiens; KYSE-510 cells, CCK-8, 72 hours; read-out: IC50, proliferation inhibition
Procedure: as §1

[5] = test system: TE-10; assay: CCK-8 cell viability assay; type: cell-based; conditions: Homo sapiens; TE-10 cells, CCK-8, 72 hours; read-out: IC50, proliferation inhibition
Procedure: as §1

Row | SMILES | RTV on day 12 after administration (mean ± standard error) [1] | Tumor state on day 12 after administration: CR [1] | Tumor state on day 12 after administration: PR [1] | Tumor state on day 12 after administration: SD [1] | T/C on day 12 after administration (%) [1] [%] | RTV on day 18 after administration (mean ± standard error) [1] | Tumor state on day 18 after administration: CR [1] | Tumor state on day 18 after administration: PR [1] | Tumor state on day 18 after administration: SD [1] | T/C on day 18 after administration (%) [1] [%] | cell migration [2] | IC50 [3] [nM] | IC50 [4] [nM] | IC50 [5] [nM] | Tumor state on day 18 after administration: remission rate, % ([1]; day 18, remission including CR, PR and SD)
1 | Cc1cc(Nc2ncc(Cl)c(Nc3ccccc3S(=O)(=O)C(C)C)n2)c(OC(C)C)cc1C1=CCN(C2CCOCC2)CC1 [Compound 5, 5-chloro-N^2-(2-isopropoxy-5-methyl-4-(1-(tetrahydro-2H-pyran-4-yl)-1,2,3,6-tetrahydropyridin-4-yl)phenyl)-N^4-(2-(isopropylsulfonyl)phenyl)pyrimidine-2,4-diamine] | 1.4 | 0/7 CR | 1/7 and 1/7 PR | 1/7 and 1/7 SD | 49.8 | 3.0 | 0/7 CR | 1/7 and 1/7 PR | 0/7 SD | 55.8 | cell migration in certain extent | 2210 | 2270 | 2600 | –
2 | C=CC(=O)N1CCC[C@@H](n2nc(-c3ccc(Oc4ccccc4)cc3)c3c(N)ncnc32)C1 [Ibrutinib] | 1.4 | 0/7 CR | 1/7 and 1/7 PR | 1/7 and 1/7 SD | 48.6 | 3.8 | 0/7 CR | no animal and 0/7 PR | no animal and 0/7 SD | 70.2 | cell migration in certain extent | 9880 | 4420 | 3010 | (0%)
